The target in the test is T1, topoisomerase I (Homo sapiens, UniProt P11387).
T1 construct: gene TOP1
T1 sequence (P11387 2-765): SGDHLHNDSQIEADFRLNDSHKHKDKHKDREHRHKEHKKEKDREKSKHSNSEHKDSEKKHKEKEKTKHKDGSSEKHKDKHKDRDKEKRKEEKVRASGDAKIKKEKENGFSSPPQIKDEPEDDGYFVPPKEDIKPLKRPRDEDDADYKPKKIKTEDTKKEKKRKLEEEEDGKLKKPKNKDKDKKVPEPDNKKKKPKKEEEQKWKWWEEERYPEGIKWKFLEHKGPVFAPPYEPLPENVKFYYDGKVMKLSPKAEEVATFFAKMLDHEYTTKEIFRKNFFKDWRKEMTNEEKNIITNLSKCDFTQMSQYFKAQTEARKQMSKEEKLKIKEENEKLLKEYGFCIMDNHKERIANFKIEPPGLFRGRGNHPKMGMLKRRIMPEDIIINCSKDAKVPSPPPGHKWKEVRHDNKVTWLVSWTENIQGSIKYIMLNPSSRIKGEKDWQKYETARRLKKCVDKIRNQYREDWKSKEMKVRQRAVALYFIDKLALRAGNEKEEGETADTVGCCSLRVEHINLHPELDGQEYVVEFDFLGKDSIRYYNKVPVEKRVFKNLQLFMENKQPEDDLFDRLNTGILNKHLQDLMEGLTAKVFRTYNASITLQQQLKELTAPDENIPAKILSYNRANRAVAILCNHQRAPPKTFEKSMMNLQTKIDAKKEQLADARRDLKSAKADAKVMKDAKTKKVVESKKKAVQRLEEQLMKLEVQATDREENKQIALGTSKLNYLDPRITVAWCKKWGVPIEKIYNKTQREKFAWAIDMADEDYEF
Nature of the test: plasmid DNA relaxation assay (supercoiled pBR322, agarose gel) with commercial human topoisomerase I. It is filed as biochemical.

From paper PMC7281429, “Chromenopyrimidinone Controls Stemness and Malignancy by suppressing CD133 Expression in Hepatocellular Carcinoma” (Cancers, 2020) come the findings set out here.

As a reminder, the EC50 is the concentration needed to bring the measured effect to its halfway point. Read a high EC50 as weaker potency.

`O=c1[nH]c(-c2ccc(O)cc2)nc2c1Cc1c(ccc3ccccc13)O2` [CPO, chromenopyrimidinone] gave an EC50 of 3.6 µM. In other words, the single-digit micromolar range.
